Measurements as given in patent publication US20230106943A1, “ENGINEERED ANTIMICROBIAL PEPTIDES AND USAGE THEREOF” (Peptilogics, Inc., priority 2021, published 2023).
Where “and” joins values, the source holds several entries; their conditions need not be identical. Equal values may be shown once. No end group written: not given here.

What was measured:
[1] = Example 4 stability of concentrated solutions: pH (method 05627); assay type: physicochemical
Method: (§1) The peptide formulation of SEQ ID NO: 1 dissolved in a saline solution with a pH of 5.0±0.1 was tested for stability under either −20° C. or 40° C. with 75% relative humidity (RH). […]

[2] = Stability of 5 mg/mL SEQ ID NO: 1 solution pH 5.0 stored at 40° C. or −20° C. (content, pH, HPLC area %); assay type: physicochemical
[3] = Example 4 stability of concentrated saline pH 5.0 solutions at −20° C. or 40° C./75% RH: Visual Appearance (method 25481); assay type: physicochemical
Method: as §1

[4] = not given; remark: listed apart in the source
[5] = Example 4 stability of concentrated solutions: Osmolality (method 69153); assay type: physicochemical
Method: as §1

[6] = Stability of 5 mg/mL SEQ ID NO: 1 solution pH 5.0 stored at 40° C. or −20° C. (content, pH, HPLC area %); assay type: physicochemical; settings: for level of impurity at RRT 0.98: 5 mg/mL solution pH 5.0
Method: Enhanced stability was shown of the peptide formulation after 54 days of storage at 40° C. as a liquid solution with a concentration of 5 mg/mL of SEQ ID NO: 1 at pH of 5.0. FIG. 4 depict the overlaid chromatograph of SEQ ID NO: 1 after 7 days at 40° C. (bottom graph) and after 54 days at 40° C. (top graph).

[7] = 15.3 mg/mL solution, 40° C. and 75% RH, 1 Month
[8] = 15.3 mg/mL solution, 40° C. and 75% RH, 2 Month
[9] = 15.3 mg/mL solution, 40° C. and 75% RH, 3 Month
[10] = 15.3 mg/mL solution, 40° C. and 75% RH, 6 Month
[11] = 15.3 mg/mL solution, −20° C., 0 Month
[12] = 15.3 mg/mL solution, −20° C., 1 Month
[13] = 15.3 mg/mL solution, −20° C., 2 Month
[14] = 15.3 mg/mL solution, −20° C., 3 Month
[15] = 15.3 mg/mL solution, −20° C., 6 Month
[16] = 36.7 mg/mL solution, 40° C. and 75% RH, 1 Month
[17] = 36.7 mg/mL solution, 40° C. and 75% RH, 2 Month
[18] = 36.7 mg/mL solution, 40° C. and 75% RH, 3 Month
[19] = 36.7 mg/mL solution, 40° C. and 75% RH, 6 Month
[20] = 36.7 mg/mL solution, −20° C., 0 Month
[21] = 36.7 mg/mL solution, −20° C., 1 Month
[22] = 36.7 mg/mL solution, −20° C., 2 Month
[23] = 36.7 mg/mL solution, −20° C., 3 Month
[24] = 36.7 mg/mL solution, −20° C., 6 Month
[25] = 72.4 mg/mL solution, 40° C. and 75% RH, 1 Month
[26] = 72.4 mg/mL solution, 40° C. and 75% RH, 2 Month
[27] = 72.4 mg/mL solution, 40° C. and 75% RH, 3 Month
[28] = 72.4 mg/mL solution, 40° C. and 75% RH, 6 Month
[29] = 72.4 mg/mL solution, −20° C., 0 Month
[30] = 72.4 mg/mL solution, −20° C., 1 Month
[31] = 72.4 mg/mL solution, −20° C., 2 Month
[32] = 72.4 mg/mL solution, −20° C., 3 Month
[33] = 72.4 mg/mL solution, −20° C., 6 Month
[34] = 81.4 mg/mL solution, 40° C. and 75% RH, 1 Month
[35] = 81.4 mg/mL solution, 40° C. and 75% RH, 2 Month
[36] = 81.4 mg/mL solution, 40° C. and 75% RH, 3 Month
[37] = 81.4 mg/mL solution, −20° C., 0 Month
[38] = 81.4 mg/mL solution, −20° C., 1 Month
[39] = 81.4 mg/mL solution, −20° C., 2 Month
[40] = 81.4 mg/mL solution, −20° C., 3 Month

RRWVRRVRRVWRRVVRVVRRWVRR-NH2 [SEQ ID NO: 1]
pH [1, 7]: Average Reading: 4.9
pH [1, 8]: Average Reading: 5.0
pH [1, 9]: Average Reading: 5.0
pH [1, 10]: 5.0
pH [1, 11]: Average Reading: 4.9
pH [1, 12]: Average Reading: 5.0
pH [1, 13]: Average Reading: 4.9
pH [1, 14]: Average Reading: 5.0
pH [1, 15]: 5.0
pH Average Reading [1, 16]: Average Reading: 4.8
pH Average Reading [1, 17]: Average Reading: 4.9
pH Average Reading [1, 18]: Average Reading: 5.0
pH [1, 19]: 4.8
pH [1, 20]: Average Reading: 4.9
pH [1, 21]: Average Reading: 4.8
pH [1, 22]: Average Reading: 4.9
pH [1, 23]: Average Reading: 5.0
pH [1, 24]: 4.9
pH Average Reading [1, 25]: Average Reading: 4.7
pH Average Reading [1, 26]: Average Reading: 4.9
pH Average Reading [1, 27]: Average Reading: 5.0
pH [1, 28]: 4.8
pH Average Reading [1, 29]: Average Reading: 4.9
pH Average Reading [1, 30]: Average Reading: 4.7
pH Average Reading [1, 31]: Average Reading: 4.8
pH Average Reading [1, 32]: Average Reading: 5.0
pH [1, 33]: 4.8
pH [1, 34]: 4.9
pH [1, 35]: 4.9
pH [1, 36]: 4.9
pH [1, 37]: 4.6
pH [1, 38]: 4.8
pH [1, 39]: 4.9
pH [1, 40]: 4.6
Solution pH ([2]; 7 days/−20° C.): 4.95
Main peak SEQ ID NO: 1 area % ([2]; 14 days/−20° C.): 95.4%
SEQ ID NO: 1 content ([2]; 54 days/−20° C.): 5.09 mg/mL
Solution pH ([2]; 54 days/−20° C.): 4.95
Visual Appearance [3, 7]: Clear, colorless liquid. Free of visible particulates.
Visual Appearance [3, 8]: Clear, colorless liquid. Free of visible particulates.
Visual Appearance [3, 9]: Clear, colorless liquid. Free of visible particulates.
Visual Appearance [3, 10]: Clear, colorless liquid. Free of visible particulates,
Visual Appearance [3, 11]: Clear, colorless liquid. Free of visible particulates.
Visual Appearance [3, 12]: Clear, colorless liquid. Free of visible particulates.
Visual Appearance [3, 13]: Clear, colorless liquid. Free of visible
Visual Appearance [3, 14]: Clear, colorless liquid. Free of visible particulates.
Visual Appearance [3, 15]: Clear, colorless liquid. Free of visible particulates,
Visual Appearance [3, 16]: Clear, colorless liquid
Visual Appearance [3, 17]: Clear, colorless liquid
Visual Appearance [3, 18]: Clear, colorless liquid
Visual Appearance [3, 19]: Clear, colorless liquid, free
Visual Appearance [3, 20]: Clear, colorless liquid.
Visual Appearance [3, 21]: Clear, colorless liquid.
Visual Appearance [3, 22]: Clear, colorless liquid.
Visual Appearance [3, 23]: Clear, colorless liquid.
Visual Appearance [3, 24]: Clear, colorless liquid, free
Visual Appearance [3, 25]: Clear, colorless liquid
Visual Appearance [3, 26]: Clear, colorless liquid
Visual Appearance [3, 27]: Clear, colorless liquid
Visual Appearance [3, 28]: Clear, slightly yellow liquid, free
Visual Appearance [3, 29]: Clear, colorless liquid
Visual Appearance [3, 30]: Clear, colorless liquid
Visual Appearance [3, 31]: Clear, colorless liquid
Visual Appearance [3, 32]: Clear, colorless liquid
Visual Appearance [3, 33]: Clear, colorless liquid, free
Visual Appearance [3, 34]: Clear, yellow liquid
Visual Appearance [3, 36]: stopper Solution: Clear, yellow
Visual Appearance [3, 38]: Clear, colorless liquid
Visual Appearance [3, 39]: a clear colorless liquid, visibly
Visual Appearance [3, 40]: rubber stopper Solution: Clear, colorless liquid,
solubility: > 100 mg/mL
pKa [4]: ~12.5
Osmolality [5, 7]: Average Reading: 82 mOsmol/kg
Osmolality [5, 8]: Average Reading: 83 mOsmol/kg
Osmolality [5, 9]: Average Reading: 80 mOsmol/kg
Osmolality [5, 10]: 85 mOsmol/kg
Osmolality [5, 11]: Average Reading: 82 mOsmol/kg
Osmolality [5, 12]: Average Reading: 82 mOsmol/kg
Osmolality [5, 13]: Average Reading: 82 mOsmol/kg
Osmolality [5, 14]: Average Reading: 82 mOsmol/kg
Osmolality [5, 15]: 84 mOsmol/kg
Osmolality ([5]; 15.3 mg/mL solution, −20° C., 9 Month): 83 mOsmol/kg
Osmolality Average Reading [5, 16]: Average Reading: 188 mOsmol/kg
Osmolality Average Reading [5, 17]: Average Reading: 189 mOsmol/kg
Osmolality Average Reading [5, 18]: Average Reading: 191 mOsmol/kg
Osmolality [5, 19]: 193 mOsmol/kg
Osmolality [5, 20]: Average Reading: 190 mOsmol/kg
Osmolality [5, 21]: Average Reading: 188 mOsmol/kg
Osmolality [5, 22]: Average Reading: 190 mOsmol/kg
Osmolality [5, 23]: Average Reading: 193 mOsmol/kg
Osmolality [5, 24]: 190 mOsmol/kg
Osmolality ([5]; 36.7 mg/mL solution, −20° C., 9 Month): 190 mOsmol/kg
Osmolality Average Reading [5, 25]: Average Reading: 374 mOsmol/kg
Osmolality Average Reading [5, 26]: Average Reading: 379 mOsmol/kg
Osmolality Average Reading [5, 27]: Average Reading: 371 mOsmol/kg
Osmolality [5, 28]: 194 mOsmol/kg
Osmolality Average Reading [5, 29]: Average Reading: 371 mOsmol/kg
Osmolality Average Reading [5, 30]: Average Reading: 374 mOsmol/kg
Osmolality Average Reading [5, 31]: Average Reading: 376 mOsmol/kg
Osmolality Average Reading [5, 32]: Average Reading: 374 mOsmol/kg
Osmolality [5, 33]: 195 mOsmol/kg
Osmolality ([5]; 72.4 mg/mL solution, −20° C., 9 Month): 375 mOsmol/kg
Osmolality [5, 34]: 489 mOsm/kg
Osmolality [5, 35]: 491 mOsm/kg
Osmolality [5, 36]: 492 mOsm/kg
Osmolality [5, 37]: 485 mOsm/kg
Osmolality [5, 38]: 489 mOsm/kg
Osmolality [5, 39]: 488 mOsm/kg
Osmolality [5, 40]: 486 mOsm/kg
level of impurity at RRT 0.98 ([6]; 7 days at 40° C.): 0.4%
level of impurity at RRT 0.98 ([6]; 54 days at 40° C.): 1.1%
Main peak SEQ ID NO: 1 area % ([6]; 7 days/40° C.): 97.2% and 97.1%
SEQ ID NO: 1 content ([6]; 7 days/40° C.): 5.05 mg/mL and 5.11 mg/mL
Solution pH ([6]; 7 days/40° C.): 4.98 and 5.02
Main peak SEQ ID NO: 1 area % ([6]; 7 days/−20° C.): 97.2%
SEQ ID NO: 1 content ([6]; 7 days/−20° C.): 5.11 mg/mL
Main peak SEQ ID NO: 1 area % ([6]; 14 days/40° C.): 96.2% and 94.7%
SEQ ID NO: 1 content ([6]; 14 days/40° C.): 5.05 mg/mL and 5.01 mg/mL
Solution pH ([6]; 14 days/40° C.): 5.01 and 5.00
SEQ ID NO: 1 content ([6]; 14 days/−20° C.): 5.08 mg/mL
Solution pH ([6]; 14 days/−20° C.): 4.97
Main peak SEQ ID NO: 1 area % ([6]; 54 days/40° C.): 95.6%
SEQ ID NO: 1 content ([6]; 54 days/40° C.): 4.99 mg/mL
Solution pH ([6]; 54 days/40° C.): 4.96
Main peak SEQ ID NO: 1 area % ([6]; 54 days/−20° C.): 96.9%
Area % of concurrent analytical standard ([6]; standard run with the 7 days samples): 97.1 ± 0.4%
Area % of concurrent analytical standard ([6]; standard run with the 14 days samples): 95.5 ± 0.5%
Area % of concurrent analytical standard ([6]; standard run with the 54 days samples): 96.8 ± 0.8%
